Source: ChEMBL document CHEMBL5055642, “Strobiloscyphones A-F, 6-Isopentylsphaeropsidones and Other Metabolites from Strobiloscypha sp. AZ0266, a Leaf-Associated Fungus of Douglas Fir” (J Nat Prod, 2021)
≈ marks a conversion by molar mass, not a printed value. One block for each compound: values may come before it. Calls of active or inactive are those of the source. No cut-off for these calls is given here.

Experiments:
[1] = tested on: WI-38; assay: Cytotoxicity against human WI-38 cells assessed as inhibition of cell proliferation up to 10 uM measured after 72 hrs by resazurin dye based AlamarBlue assay; details: wi-38, 72 h
[2] = tested on: PC-3M; assay: Cytotoxicity against human PC-3M cells assessed as inhibition of cell proliferation up to 10 uM measured after 72 hrs by resazurin dye based AlamarBlue assay; assay type: functional
[3] = tested on: MCF7; assay: Cytotoxicity against human MCF7 cells assessed as inhibition of cell proliferation up to 10 uM measured after 72 hrs by resazurin dye based AlamarBlue assay; assay type: functional
[4] = tested on: SF-268; assay: Cytotoxicity against human SF-268 cells assessed as inhibition of cell proliferation up to 10 uM measured after 72 hrs by resazurin dye based AlamarBlue assay; assay type: functional
[5] = tested on: MDA-MB-231; assay: Cytotoxicity against human MDA-MB-231 cells assessed as inhibition of cell proliferation up to 10 uM measured after 72 hrs by resazurin dye based AlamarBlue assay; assay type: functional
[6] = tested on: NCI-H460; assay: Cytotoxicity against human NCI-H460 cells assessed as inhibition of cell proliferation up to 10 uM measured after 72 hrs by resazurin dye based AlamarBlue assay; assay type: functional
[7] = tested on: PC-3M; assay: Cytotoxicity against human PC-3M cells assessed as inhibition of cell proliferation measured after 72 hrs by resazurin dye based AlamarBlue assay; assay type: functional
[8] = tested on: SF-268; assay: Cytotoxicity against human SF-268 cells assessed as inhibition of cell proliferation measured after 72 hrs by resazurin dye based AlamarBlue assay; assay type: functional; details: SF-268, 72 h
[9] = tested on: MCF7; assay: Cytotoxicity against human MCF7 cells assessed as inhibition of cell proliferation measured after 72 hrs by resazurin dye based AlamarBlue assay; assay type: functional; details: MCF7, 72 h
[10] = tested on: WI-38; assay: Cytotoxicity against human WI-38 cells assessed as inhibition of cell proliferation measured after 72 hrs by resazurin dye based AlamarBlue assay; details: WI-38, 72 h
[11] = tested on: MDA-MB-231; assay: Cytotoxicity against human MDA-MB-231 cells assessed as inhibition of cell proliferation measured after 72 hrs by resazurin dye based AlamarBlue assay; assay type: functional; details: MDA-MB-231, 72 h
[12] = tested on: NCI-H460; assay: Cytotoxicity against human NCI-H460 cells assessed as inhibition of cell proliferation measured after 72 hrs by resazurin dye based AlamarBlue assay; assay type: functional; details: NCI-H460, 72 h
[13] = tested on: Candida albicans; assay: Antifungal activity against Candida albicans ATCC 10261 assessed as inhibition of fungal growth at 50 ug/ml incubated for 24 hrs by CLSI method relative to control; assay type: functional
[14] = tested on: Candida albicans; assay: Antifungal activity against Candida albicans ATCC 10261 assessed as inhibition of fungal growth at 100 ug/ml incubated for 24 hrs by CLSI method relative to control; assay type: functional
[15] = tested on: Candida albicans; assay: Antifungal activity against Candida albicans ATCC 10261 assessed as inhibition of fungal growth at 6.25 ug/ml incubated for 24 hrs by CLSI method relative to control; assay type: functional
[16] = tested on: Pseudomonas aeruginosa; assay: Antibacterial activity against Pseudomonas aeruginosa ATCC 10197 assessed as inhibition of bacterial growth at 25 ug/ml incubated for 24 hrs by CLSI method relative to control; assay type: functional
[17] = tested on: Staphylococcus aureus; assay: Antibacterial activity against Staphylococcus aureus ATCC 25923 assessed as inhibition of bacterial growth incubated for 24 hrs by CLSI method; assay type: functional
[18] = tested on: Candida albicans; assay: Antifungal activity against Candida albicans ATCC 10261 assessed as inhibition of fungal growth at 12.5 ug/ml incubated for 24 hrs by CLSI method relative to control; assay type: functional
[19] = tested on: Pseudomonas aeruginosa; assay: Antibacterial activity against Pseudomonas aeruginosa ATCC 10197 assessed as inhibition of bacterial growth incubated for 24 hrs by CLSI method; assay type: functional
[20] = tested on: Escherichia coli; assay: Antibacterial activity against Escherichia coli ATCC 25922 assessed as inhibition of bacterial growth at 12.5 ug/ml incubated for 24 hrs by CLSI method relative to control; assay type: functional
[21] = tested on: Escherichia coli; assay: Antibacterial activity against Escherichia coli ATCC 25922 assessed as inhibition of bacterial growth incubated for 24 hrs by CLSI method; assay type: functional
[22] = tested on: Candida albicans; assay: Antifungal activity against Candida albicans ATCC 10261 assessed as inhibition of fungus growth incubated for 24 hrs by CLSI method; assay type: functional

Structure (SMILES): COC1=CC(=O)[C@@]2([C@@H](O)C=C(C)C)O[C@H]2[C@H]1O
Activity [1]: Non-Toxic | Activity [2]: inactive | Activity [3]: inactive | Activity [4]: inactive | Activity [5]: inactive | Activity [6]: inactive

Structure (SMILES): COC1=CC(=O)[C@@]2([C@H](O)C=C(C)C)O[C@H]2C1=O
IC50 [7]: 4.6 µM | IC50 [8]: 1.3 µM | IC50 [9]: 1.6 µM | IC50 [10]: 8.3 µM | IC50 [11]: 2.6 µM | IC50 [12]: 4.8 µM

Structure (SMILES): COC1=CC(=O)C(O)(C(O)CC(C)(C)O)C[C@H]1O (some centres not stated)
Activity [1]: Non-Toxic | Activity [2]: inactive | Activity [3]: inactive | Activity [4]: inactive | Activity [5]: inactive | Activity [6]: inactive

Structure (SMILES): COC1=C[C@@H](O)[C@H]2O[C@H]2C1=O
IC50 [8]: 1.7 µM | IC50 [9]: 1.6 µM | IC50 [10]: 3.8 µM

Structure (SMILES): COC1=CC(=O)[C@@]2([C@H](C=C(C)C)OC(C)=O)O[C@]3(OC)CC(=O)[C@H]4O[C@H]4[C@]3(O)[C@H]2C1=O
Activity [1]: Non-Toxic | IC50 [7]: 6 µM | IC50 [8]: 2.7 µM | IC50 [9]: 2.9 µM | IC50 [11]: 6 µM | Activity [6]: inactive

Structure (SMILES): COC1=CC(=O)[C@H]2O[C@H]2[C@H]1O
Activity [1]: Non-Toxic | inhibition at 50 µg/mL [13]: 50% | inhibition at 100 µg/mL [14]: 75% | Activity [2]: inactive | Activity [3]: inactive | Activity [4]: inactive | Activity [5]: inactive | Activity [6]: inactive

MIC [17]: 25 µg/mL (≈ 162 µM) | MIC [19]: 25 µg/mL (≈ 162 µM) | MIC [21]: 25 µg/mL (≈ 162 µM) | MIC [22]: 25 µg/mL (≈ 162 µM)
Structure (SMILES): COC1=CC(=O)[C@H]2O[C@H]2C1=O
IC50 [7]: 2.5 µM | IC50 [8]: 1.2 µM | IC50 [9]: 1.4 µM | IC50 [10]: 7.8 µM | inhibition at 6.25 µg/mL [15]: 50% | inhibition at 25 µg/mL [16]: 50% | IC50 [11]: 2.2 µM | inhibition at 12.5 µg/mL [18]: 75% | inhibition at 12.5 µg/mL [20]: 75% | MBC [21]: 25 µg/mL (≈ 162 µM) | MFC [22]: 25 µg/mL (≈ 162 µM) | IC50 [12]: 2.5 µM

Structure (SMILES): COC1=CC(=O)[C@@](O)([C@@H](C=C(C)C)OC(C)=O)CC1=O
Activity [1]: Non-Toxic | Activity [2]: inactive | Activity [3]: inactive | Activity [4]: inactive | Activity [5]: inactive | Activity [6]: inactive

Structure (SMILES): CCCCCCC(=O)C(O)C(O)/C=C/C=C/C=C\C(=O)O (configuration not stated)
Activity [1]: Non-Toxic | Activity [2]: inactive | Activity [3]: inactive | Activity [4]: inactive | Activity [5]: inactive | Activity [6]: inactive

Structure (SMILES): COC1=CC(=O)[C@](O)([C@H](C=C(C)C)OC(C)=O)C[C@H]1O
Activity [1]: Non-Toxic | Activity [2]: inactive | Activity [3]: inactive | Activity [4]: inactive | Activity [5]: inactive | Activity [6]: inactive

Structure (SMILES): COc1cccc2c1C(=O)c1c(O)c3c(c(O)c1C2=O)C[C@@](O)(C(=O)CO)C[C@@H]3O[C@H]1C[C@H](N)[C@H](O)[C@H](C)O1 [DOXORUBICIN]
IC50 [7]: 0.3 µM | IC50 [11]: 0.7 µM | IC50 [12]: 0.1 µM
